Data reported in patent EP0133795B1 (THE McLEAN HOSPITAL CORPORATION, priority 1983, dated 1985).
pIC50: −log10 of the molar value.

Key:
[1] = n-Octanol/water partition coefficient; assay type: physicochemical; conditions: 5 ml n-octanol / 5 ml water, stirring 18 hours
Experimental: A Partition Coefficient was defined by the equation: [formula] representing the amount of the ester taken up per ml of n-octanol relative to the amount of the same compound taken up per ml of water.
The n-octanol/water partition coefficients were obtained from measurements of the distribution of 1, 3, 5 and 6 pmol quantities of each ^14C-labeled compound into a mixture of 5 ml of n-octanol and 5 ml water. At each concentration, the amount of labeled compound in the aqueous and n-octanol phases was calculated from the amount of radioactive material present after stirring for 18 hours.

[2] = system: bicuculline-induced epileptic seizures; test: Delay of onset of bicuculline-induced seizures (anticonvulsant activity); assay type: in vivo, mouse; conditions: for Onset of seizures: % Saline Control / Survival Time: % Saline Control: 24 hr pretreatment
GABA "receptors" = test: Inhibition of [3H]GABA binding to synaptic membranes from rat cerebellum; conditions: [3H]GABA (15 nM); synaptic membrane preparations from rat cerebellum
Experimental: IC50 values were determined by fitting data to linearized transformations, based on including at least two concentrations of antagonists above and below the IC50, with at least triplicate replication per concentration.

[3] = 16 mg/kg, bicuculline 0.3 mg/kg
[4] = 30 mg/kg, bicuculline 0.3 mg/kg
[5] = 84 mg/kg, bicuculline 0.3 mg/kg, mean ± SEM, n ≥ 6

In the case of “(3-Cholesteryl)-gamma-Aminobutyrate [Compound 6]”, the “KOW: Octanol/Water Partition Coefficient” value [1] was 110, the “Onset of seizures: % Saline Control” value ([2]; 3 mg/kg, bicuculline 0.3 mg/kg) was 120 ± 6 % Saline Control and the “Survival Time: % Saline Control” value ([2]; 3 mg/kg, bicuculline 0.3 mg/kg) was 95 ± 15 % Saline Control. The “Onset of seizures: % Saline Control” value [2, 3] was 129 ± 4 % Saline Control, the “Survival Time: % Saline Control” value [2, 3] was 101 ± 20 % Saline Control and the “Onset of seizures: % Saline Control” value [2, 4] was 130 ± 8 % Saline Control. The “Survival Time: % Saline Control” value [2, 4] was 104 ± 18 % Saline Control, the “Onset of seizures: % Saline Control” value [2, 5] was 137 ± 7 % Saline Control and the “Survival Time: % Saline Control” value [2, 5] was 109 ± 9 % Saline Control. For the same substance, the “delay of onset of seizures” value ([2]; 24 hr after i.p. injection of 30 mg/kg, bicuculline 0.3 mg/kg) was 30%, the “In Vivo Delay of Time of Onset of Bicuculline-induced seizures” value ([2]; graded 0-5) was 5 and the pIC50 (GABA "receptors") was 5.00.
